Results from US20250235545A1, “POLYPEPTIDE CONJUGATE AND USE THEREOF” (SHANGHAI CHIXI BIOMEDICAL TECHNOLOGY CO., LTD, priority 2024, published 2025).
Values after ≈ are worked out from the molar mass of the structure shown. Where two headings read alike, the source gives them in different places.

Key:
[1] = tested on: SKBR3 (breast cancer tissue); assay: cells; assay type: cell-based; conditions: CCK8, 48 h; for IC50 SKBR3 (breast cancer tissue): Table 1; for IC50 Breast cancer tissue (SKBR3): Table 6
Protocol: (§1) Different types of cells were cultured with complete media (RPMI1640 (DMEM high sugar medium)+10% fetal bovine serum+1XP/S+sodium pyruvate 1 mM solution) in an incubator at 37° C. and 5% CO2 until the cells grew to a sufficient number, and the cells were collected, centrifuged at 1,000 g for 5 min, resuspended with an appropriate volume of a 10% RMPI1640 (DMEM high sugar medium) medium and counted. In a 96-well culture plate, 100 μL of cell culture fluid containing different concentrations of drugs was added, control wells (0.1% DMSO) with only corresponding drug solvents without drugs, as well as blank wells (Blank) with only the medium but without cells were set, and three parallel wells were set in each group. After that, the cells after cell counting were inoculated onto 96-well culture plates, with 100 μL of cell suspension per well, and an inoculation concentration of the cells was 5,000 cells (100 μL)/well. The plates were then cultured in a CO2 (5%) incubator at 37° C. for 48 h. After 48 h, 10 μL of a cell proliferation staining reagent (CCK8) was added to each well, the plates were incubated in a cell incubator for around 2 h, and an absorbance at 450 nm was detected.
(§2) Cell survival rates and median inhibitory concentrations of the drugs on the cells were calculated.
as §1, with “serum+1×P/S+sodium” for “serum+1XP/S+sodium”, “adjusted to an appropriate density.” for “counted.”
(§3) Cell survival rates and median inhibitory concentrations (IC50) of the drugs on the cells were calculated.

A2780 (ovarian cancer) = assay: cells; assay type: cell-based; conditions: CCK8, 48 h; for IC50 A2780 (ovarian cancer): Table 1; for IC50 Ovarian cancer tissue (A2780): Table 6
Protocol: as §1, §2
as §1, with “serum+1×P/S+sodium” for “serum+1XP/S+sodium”, “adjusted to an appropriate density.” for “counted.”
as §3

SJSA-1 (sarcoma tissue) = assay: cells; assay type: cell-based; conditions: CCK8, 48 h; for IC50 SJSA-1 (sarcoma tissue): Table 1; for IC50 Sarcoma tissue (SJSA-1): Table 6
Protocol: as §1, §2
as §1, with “serum+1×P/S+sodium” for “serum+1XP/S+sodium”, “adjusted to an appropriate density.” for “counted.”
as §3

[2] = tested on: A549 (non-small cell lung cancer); assay: cells; assay type: cell-based; conditions: CCK8, 48 h; for IC50 A549 (non-small cell lung cancer): Table 1; for IC50 Non-small cell lung cancer tissue (A549): Table 6
Protocol: as §1, §2
as §1, with “serum+1×P/S+sodium” for “serum+1XP/S+sodium”, “adjusted to an appropriate density.” for “counted.”
as §3

[3] = tested on: sarcoma SJSA-1 tumor model; conditions: 5 mg/kg once a week for three weeks
Protocol: Test objective: To investigate the antitumor efficacy of the above compounds in an animal tumor model of sarcoma SJSA-1.
(§4) Test drug: Polypeptide conjugate, Irinotecan, Belotecan and normal saline control group.
(§5) Test animals: 6-8 weeks old BALB/c mice, all female.
(§6) SJSA-1 cells were purchased from ATCC and cultured in a DMEM medium containing 10% fetal bovine serum at 37° C. in 5% CO2. Passaging was performed every three days, and cells within 15 generations were used. 2×10^7 corresponding cells were injected into right chests of nude mice subcutaneously. After a volume of the tumors reached at least 100 mm^3, the mice were grouped randomly, with three mice in each group. Then treatment was started, and the day when the treatment was started was the first day. […] The control group was administered with normal saline. Administration was performed once a week for three weeks.
as §6

[4] = tested on: colo320 colorectal cancer tumor model
Protocol: Test objective: To investigate the antitumor efficacy of the above compounds in an animal tumor model of colo320 colorectal cancer.
as §4, §5
as §6, with “Passaging” for “SJSA-1 cells were purchased from ATCC and cultured in a DMEM medium containing 10% fetal bovine serum at 37° C. in 5% CO2. Passaging”, “used. 7.5×10^6” for “used. 2×10^7”, “least 120” for “least 100”, “for four” for “for three”

[5] = MTD determination in mice (Examples 27, 36, 44); assay type: in vivo; conditions: mice, monitored for 14 d
Source text: Test animals: 6-8 weeks old mice, all female; mice were grouped randomly, with six mice in each group, administered with drugs at different concentration gradients separately and monitored for 14 d. A mouse was euthanized at a loss of 20% of its initial weight and deemed to have died of poisoning.

[6] = tested on: colo320 (colorectal cancer tissue); assay: cells; assay type: cell-based; conditions: CCK8, 48 h; Table 6
Protocol: as §1, with “serum+1×P/S+sodium” for “serum+1XP/S+sodium”, “adjusted to an appropriate density.” for “counted.”
as §3

[7] = 5 mg/kg once a week for four weeks, Table 3
[8] = 5 mg/kg once a week for four weeks, Table 8
[9] = Table 13 (Example 42), dose 5 mg/kg, once a week for four weeks, BALB/c mice

CC[C@@]1(O)C(=O)OCc2c1cc1n(c2=O)Cc2c-1nc1ccccc1c2CCNC [D1]
IC50 SKBR3 (breast cancer tissue) [1]: 0.050 µg/mL (≈ 0.123 µM)
IC50 Breast cancer tissue (SKBR3) [1]: 0.050 µg/mL (≈ 0.123 µM)
IC50 A2780 (ovarian cancer) (A2780 (ovarian cancer)): 0.018 µg/mL (≈ 0.0444 µM)
IC50 Ovarian cancer tissue (A2780) (A2780 (ovarian cancer)): 0.018 µg/mL (≈ 0.0444 µM)
IC50 SJSA-1 (sarcoma tissue) (SJSA-1 (sarcoma tissue)): 0.028 µg/mL (≈ 0.0691 µM)
IC50 Sarcoma tissue (SJSA-1) (SJSA-1 (sarcoma tissue)): 0.028 µg/mL (≈ 0.0691 µM)
IC50 A549 (non-small cell lung cancer) [2]: 0.027 µg/mL (≈ 0.0666 µM)
IC50 Non-small cell lung cancer tissue (A549) [2]: 0.027 µg/mL (≈ 0.0666 µM)
Mouse weight (%) ([3]; Table 2): −6%
SJSA-1 (sarcoma tissue) mean tumor volume (mm^3) ([3]; Table 2): 1432 mm^3
SJSA-1 (sarcoma) Growth rate (%) ([3]; Table 2): 1235.57%
Mouse weight (%) ([3]; Table 7): −6%
SJSA-1 (sarcoma tissue) growth rate (%) ([3]; Table 7): 1235.57%
SJSA-1 (sarcoma tissue) mean tumor volume (mm^3) ([3]; Table 7): 1432 mm^3
Mouse weight (%) [4, 7]: −7%
colo320 (colorectal cancer cell) growth rate (%) [4, 7]: 1012.22%
colo320 (colorectal cancer cell) mean tumor volume (mm^3) [4, 7]: 1121.1 mm^3
Mouse weight (%) [4, 8]: −7%
colo320 (colorectal cancer cell) growth rate (%) [4, 8]: 1012.22%
colo320 (colorectal cancer cell) mean tumor volume (mm^3) [4, 8]: 1121.1 mm^3
Mouse weight (%) [4, 9]: −7%
colo320 (colorectal cancer cell) growth rate (%) [4, 9]: 1012.22%
colo320 (colorectal cancer cell) mean tumor volume (mm^3) [4, 9]: 1121.1 mm^3
MTD ([5]; Table 4): 25 mg/kg
MTD ([5]; Table 9): 25 mg/kg
IC50 Colorectal cancer tissue (colo320) [6]: 0.040 µg/mL (≈ 0.0987 µM)

CCNCCc1c2c(nc3ccccc13)-c1cc3c(c(=O)n1C2)COC(=O)[C@]3(O)CC [D2]
IC50 SKBR3 (breast cancer tissue) [1]: 0.036 µg/mL (≈ 0.0858 µM)
IC50 Breast cancer tissue (SKBR3) [1]: 0.036 µg/mL (≈ 0.0858 µM)
IC50 A2780 (ovarian cancer) (A2780 (ovarian cancer)): 0.018 µg/mL (≈ 0.0429 µM)
IC50 Ovarian cancer tissue (A2780) (A2780 (ovarian cancer)): 0.018 µg/mL (≈ 0.0429 µM)
IC50 SJSA-1 (sarcoma tissue) (SJSA-1 (sarcoma tissue)): 0.023 µg/mL (≈ 0.0548 µM)
IC50 Sarcoma tissue (SJSA-1) (SJSA-1 (sarcoma tissue)): 0.023 µg/mL (≈ 0.0548 µM)
IC50 A549 (non-small cell lung cancer) [2]: 0.030 µg/mL (≈ 0.0715 µM)
IC50 Non-small cell lung cancer tissue (A549) [2]: 0.030 µg/mL (≈ 0.0715 µM)
Mouse weight (%) ([3]; Table 2): −8%
SJSA-1 (sarcoma tissue) mean tumor volume (mm^3) ([3]; Table 2): 1176.5 mm^3
SJSA-1 (sarcoma) Growth rate (%) ([3]; Table 2): 1018.01%
Mouse weight (%) ([3]; Table 7): −8%
SJSA-1 (sarcoma tissue) growth rate (%) ([3]; Table 7): 1018.01%
SJSA-1 (sarcoma tissue) mean tumor volume (mm^3) ([3]; Table 7): 1176.5 mm^3
Mouse weight (%) [4, 7]: −7%
colo320 (colorectal cancer cell) growth rate (%) [4, 7]: 946.13%
colo320 (colorectal cancer cell) mean tumor volume (mm^3) [4, 7]: 1047.9 mm^3
Mouse weight (%) [4, 8]: −7%
colo320 (colorectal cancer cell) growth rate (%) [4, 8]: 946.13%
colo320 (colorectal cancer cell) mean tumor volume (mm^3) [4, 8]: 1047.9 mm^3
MTD ([5]; Table 4): 25 mg/kg
MTD ([5]; Table 9): 25 mg/kg
IC50 Colorectal cancer tissue (colo320) [6]: 0.051 µg/mL (≈ 0.122 µM)
